Test results from US6610883B1, “Compounds having selective activity for retinoid X receptors, and means for modulation of processes mediated by retinoid X receptors” (Ligand Pharmaceuticals, Inc., priority 1992, dated 2003).

Tests used:
[1] = target: T1, RXRβ/VDR (UniProt P11473+P28704); test: Co-transfection of RXRβ and VD receptors in CV-1 cells; format: cell-based
T1 construct: expressed in transfected cells; host or cells: CV-1

[2] = target: T2, RARγ (Homo sapiens, UniProt P13631); test: Radioligand displacement binding, RARγ
T2 sequence (P13631 1-454): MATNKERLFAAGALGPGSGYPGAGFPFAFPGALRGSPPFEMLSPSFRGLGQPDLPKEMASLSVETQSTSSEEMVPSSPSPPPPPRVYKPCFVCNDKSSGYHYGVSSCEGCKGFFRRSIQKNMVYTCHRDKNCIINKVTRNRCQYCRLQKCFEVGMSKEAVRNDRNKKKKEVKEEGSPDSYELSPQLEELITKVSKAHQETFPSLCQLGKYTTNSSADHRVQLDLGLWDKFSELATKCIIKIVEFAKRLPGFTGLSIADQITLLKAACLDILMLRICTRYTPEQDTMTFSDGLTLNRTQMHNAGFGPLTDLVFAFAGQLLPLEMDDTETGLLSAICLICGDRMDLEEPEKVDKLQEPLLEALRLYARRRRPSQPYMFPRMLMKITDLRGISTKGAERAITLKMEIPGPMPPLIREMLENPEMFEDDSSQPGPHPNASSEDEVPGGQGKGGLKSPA
Protocol: (§7) The binding parameters of receptors expressed in baculovirus systems and mammalian systems are essentially identical.
(§8) By testing the abilities of various synthetic retinoids to compete with the radiolabeled retinoic acid for binding to various receptor isoforms, the ability of the compounds to directly interact with the receptor can be examined, and the relative dissociation constant for the receptor itself can be determined.
(§9) The Kd values were determined by application of the Cleng-Prusoff equation. These values were based on a determination of the IC50 value as determined graphically from a log-logit plot of the data.

[3] = target: T3, RARα (Homo sapiens, UniProt P10276); test: Co-transfection (cis-trans) assay in CV-1 cells, RARα; format: cell-based; parameters: expressed in transfected cells; host or cells: CV-1 (monkey kidney)
T3 sequence (P10276 1-462): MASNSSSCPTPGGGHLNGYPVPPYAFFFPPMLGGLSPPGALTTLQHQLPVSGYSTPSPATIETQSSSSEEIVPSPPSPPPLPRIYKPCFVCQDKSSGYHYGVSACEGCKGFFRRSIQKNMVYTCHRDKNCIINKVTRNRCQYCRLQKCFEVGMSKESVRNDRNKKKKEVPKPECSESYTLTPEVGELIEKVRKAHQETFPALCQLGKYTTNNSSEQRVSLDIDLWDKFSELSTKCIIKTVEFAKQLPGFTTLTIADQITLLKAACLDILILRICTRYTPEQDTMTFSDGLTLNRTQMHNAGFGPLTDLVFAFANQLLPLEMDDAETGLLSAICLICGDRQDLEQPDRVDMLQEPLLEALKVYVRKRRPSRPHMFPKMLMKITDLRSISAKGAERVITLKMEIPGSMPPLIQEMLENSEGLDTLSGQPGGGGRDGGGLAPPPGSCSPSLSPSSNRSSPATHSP
Text: (§1) The co-transfection assay provides a mechanism to evaluate the ability of a compound to modulate the transcription response initiated by an intracellular receptor. […] Berger, et al., J. Steroid Biochem Molec.
(§2) Briefly, the co-transfection assay involves the introduction of two plasmids by transient transfection into a retinoid receptor-negative mammalian cell background. The first plasmid contains a retinoid receptor cDNA and directs constitutive expression of the encoded receptor. The second plasmid contains a cDNA that encodes for a readily quantifiable protein, e.g., firefly luciferase or chloramphenicol acetyl transferase (CAT), under control of a promoter containing a retinoid acid response element, which confers retinoid dependence on the transcription of the reporter. In this co-transfection assay, all retinoid receptors respond to all-trans-retinoic acid in a similar fashion. This assay can be used to accurately measure efficacy and potency of retinoic acid and synthetic retinoids as ligands that interact with the individual retinoid receptor subtypes.
(§3) Accordingly, synthetic retinoid compounds of the current invention were evaluated for their interaction with retinoid receptor subtypes using the co-transfection assay in which CV-1 cells were co-transfected with one of the retinoid receptor subtypes, a reporter construct, and an internal control to allow normalization of the response for transfection efficiency. The following example is illustrative.
(§4) Retinoids: All-tans-retinoic acid (RA) and 13-cis-retinoic acid (13-cis-RA) were obtained from Sigma. […] Retinoids were dissolved in dimethylsulfoxide for use in the transcriptional activation assays.
(§5) Co-transfection Assay In CV-1 Cells: A monkey kidney cell line, CV-1, was used in the cis-trans assay. Cells were transfected with two plasmids. […] The cis-vector contains an easily assayable gene product, in this case the firefly luciferase, coupled to a retinoid-responsive promoter, i.e., an RARE or RXRE. Addition of retinoic acid or an appropriate synthetic retinoid results in the formation of a retinoid-RAR or -RXR complex that activates the expression of luciferase gene, causing light to be emitted from cell extracts. The level of luciferase activity is directly proportional to the effectiveness of the retinoid-receptor complex in activating gene expression. This sensitive and reproducible co-transfection approach permits the identification of retinoids that interact with the different receptor isoforms.
(§6) Cells were cultured in DMEM supplemented with 10% charcoal resin-stripped fetal bovine serum, and experiments were conducted in 96-well plates. […] Cells were transfected for 6 h and then washed to remove the precipitate. The cells were then incubated for 36 h with or without retinoid. After the transfection, all subsequent steps were performed on a Beckman Biomek Automated Workstation. […] All determinations were performed in triplicate in two independent experiments and were normalized for transfection efficiency by using β-galactosidase as the internal control. […] Efficacy values less than 5% are not statistically different than the 0% background.

[4] = target: T4, RARβ (Homo sapiens, UniProt P10826); test: Co-transfection (cis-trans) assay in CV-1 cells, RARβ; format: cell-based; parameters: expressed in transfected cells; host or cells: CV-1 (monkey kidney)
T4 sequence (P10826 1-455): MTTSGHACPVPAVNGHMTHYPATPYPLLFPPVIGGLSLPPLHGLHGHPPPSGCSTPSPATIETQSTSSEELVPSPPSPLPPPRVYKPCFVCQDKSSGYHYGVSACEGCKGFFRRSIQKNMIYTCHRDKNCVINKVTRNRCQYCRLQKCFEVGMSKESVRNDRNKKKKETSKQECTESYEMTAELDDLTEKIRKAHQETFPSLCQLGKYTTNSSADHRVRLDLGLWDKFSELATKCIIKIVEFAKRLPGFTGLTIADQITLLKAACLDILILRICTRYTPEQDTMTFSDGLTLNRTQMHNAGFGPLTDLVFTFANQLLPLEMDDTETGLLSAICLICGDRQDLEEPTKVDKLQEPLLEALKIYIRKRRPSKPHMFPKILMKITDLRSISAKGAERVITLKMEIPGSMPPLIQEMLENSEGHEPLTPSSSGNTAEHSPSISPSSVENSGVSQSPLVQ
Text: as §1, §2, §3, §4, §5, §6

[5] = target: T4, RARβ; test: Radioligand displacement binding, RARβ
Protocol: as §7, §8, §9

[6] = target: T2, RARγ; test: Co-transfection (cis-trans) assay in CV-1 cells, RARγ; format: cell-based; parameters: expressed in transfected cells; host or cells: CV-1 (monkey kidney)
Text: as §1, §2, §3, §4, §5, §6

[7] = target: T3, RARα; test: Radioligand displacement binding, RARα; parameters: made in house; details: displacement of radiolabeled retinoic acid, read-out: Binding (Kd50 nM)
Protocol: as §7, §8, §9

[8] = CV-1, maximal response relative to all-trans-retinoic acid at 10^−5 M, read-out: Efficacy
[9] = CV-1 cells, luciferase reporter, 36 h, read-out: Potency

T1 sequence (P28704 whole entry): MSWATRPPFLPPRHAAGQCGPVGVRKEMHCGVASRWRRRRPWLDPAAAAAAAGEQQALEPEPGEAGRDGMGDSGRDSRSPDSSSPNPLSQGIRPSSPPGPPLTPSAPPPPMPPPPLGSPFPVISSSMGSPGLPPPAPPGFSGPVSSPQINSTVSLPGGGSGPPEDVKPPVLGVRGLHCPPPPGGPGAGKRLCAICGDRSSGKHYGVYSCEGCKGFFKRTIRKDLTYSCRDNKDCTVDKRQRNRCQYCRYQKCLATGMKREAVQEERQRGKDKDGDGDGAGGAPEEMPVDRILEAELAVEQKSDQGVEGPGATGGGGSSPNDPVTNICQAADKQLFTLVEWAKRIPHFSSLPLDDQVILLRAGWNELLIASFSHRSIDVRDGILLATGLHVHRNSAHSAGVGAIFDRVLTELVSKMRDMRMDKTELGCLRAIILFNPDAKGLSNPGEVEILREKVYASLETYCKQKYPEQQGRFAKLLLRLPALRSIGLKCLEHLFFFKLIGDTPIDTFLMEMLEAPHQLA
T1 sequence (P11473 whole entry): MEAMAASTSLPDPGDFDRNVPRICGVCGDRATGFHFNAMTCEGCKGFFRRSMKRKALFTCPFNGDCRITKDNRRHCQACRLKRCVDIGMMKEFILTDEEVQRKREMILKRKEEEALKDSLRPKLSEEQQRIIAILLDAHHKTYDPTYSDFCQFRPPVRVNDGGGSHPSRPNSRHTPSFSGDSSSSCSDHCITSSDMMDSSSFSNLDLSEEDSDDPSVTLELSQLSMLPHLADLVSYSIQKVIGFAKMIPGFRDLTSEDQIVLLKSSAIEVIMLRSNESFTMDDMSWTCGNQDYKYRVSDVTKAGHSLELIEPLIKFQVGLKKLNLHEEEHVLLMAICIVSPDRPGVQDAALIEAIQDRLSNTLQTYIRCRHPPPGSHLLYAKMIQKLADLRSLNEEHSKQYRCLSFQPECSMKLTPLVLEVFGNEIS

Compound	Normalized Response (%) [1]	Kd [2]	Emax at 10 µM [3, 8]	EC50 [3, 9]	Emax at 10 µM [4, 8]	EC50 [4, 9]	Kd [5]	Emax at 10 µM [6, 8]	EC50 [6, 9]	Kd [7]
1,25-dihydroxy-vitamin D	100%									
C=C(c1ccc(C(=O)O)cn1)c1cc2c(cc1C)C(C)(C)CCC2(C)C [TPNEP (58), 2-[1-(3,5,5,8,8-pentamethyl-5,6,7,8-tetrahydro-2-naphthyl)ethenyl]pyridine-5-carboxylic acid]		6 µM	< 2%	> 10 µM	< 2%	> 10 µM	4.9 µM	24%	1.5 µM	7.8 µM
